In patent publication US3959077A (priority 1972, dated 1976):
Where two headings read alike, the source gives them in different places.

Assays:
[1] = cited from earlier work
[2] = system: antibody; conditions: cited from earlier work
[3] = system: binding enzyme exhibiting Na-K-ATPase activity; assay: enzymatic isotope displacement assay: displacement of H^3 ouabain from the binding enzyme; parameters: species or system guinea pig; conditions: 0, 2.5, 5, 10, 20 Ng (or ug of digitalis leaf) per 50 μl; FIG. 4
Procedure: The serum extract and aqueous buffered mixtures having known concentrations of cardiac glycosides (hereinafter referred to as standard samples) are incubated with aqueous buffered mixtures containing the novel binding enzyme of the present invention in the presence of radioactive isotope cardiac glycoside, magnesium and sodium ions, ATP a buffering agent and optionally, but preferably, a heavy metal chelating agent. It is preferably that potassium be eliminated from the reagents to optimize the sensitivity of the assay. Ten microliters of the extract are sufficient for the incubation, although smaller and larger amounts may be employed. The binding enzyme is prepared by reacting a binding enzyme precursor or binding material (described below) with a high energy phosphate compound such as adenosine triphosphate (ATP), adenosine diphosphate (ADP), guanosine triphosphate (GTP), guanosine diphosphate (GDP) and the like. The reaction is preferably conducted in the presence of magnesium and/or sodium, preferably both. The reaction is conveniently carried out in the incubation or displacement step reaction mixture. About 4 to 100 micromoles of the high energy phosphate compound are reacted with each amount of the binding enzyme precursor prepared from one gram of animal tissue; although lesser or greater amounts of a high energy phosphate compound may be used. […]
In the above assay, the binding enzyme binds tritiated ouabain in the presence of Na and Mg. […] After centrifugation, the unbound H^3 ouabain in the supernatant fraction is counted by liquid scintillation and compared with known counts for standard concentrations of digoxin. An increase in supernatant radioactivity indicates uptake of digoxin or other cardiac glycoside at the expense of tritiated ouabain. […]
A solution of 250,000 Ng (nanograms) of digoxin per ml of methanol is gravimetrically prepared. […] 50ul of each supernatant is then counted by liquid scintillation. […]

[4] = serum cardiac glycoside levels in patients, measured with the present assay; format: in vivo, human; conditions: 21 patients with arrhythmias on digoxin therapy; serum drawn at least 6 hours after last dose
Procedure: Digoxin is extracted from patient serum or from plasma as follows: 5ml of serum or plasma is shaken for 30 seconds with 30ml of Chloroform in a 40ml glass-stoppered conical centrifuge tube, and centrifuged for 2 minutes at 1800 rpm (750 × g at tip). The milky top layer and fatty plug are removed with a teflon-tipped aspirator. The bottom chloroform layer is decanted into another 40ml centrifuge tube and evaporated to dryness in 3 to 5 minutes on a Buchler Evapomixer at 60°C. under vacuum. The digoxin thus extracted is rinsed down to the bottom of the tube with 1ml of ethyl ether and evaporated to dryness in a 50°C. water bath under a stream of filtered air.
. The sample is mixed on a Vari-whirl vortex mixer for 20 seconds at full speed and centrifuged for 3 minutes at 1800 rpm. The top toluene layer is removed with a narrow, drawn-out pasteur pipet, and discarded. Duplicate 50μl tris aliquots of the bottom tris layer are then assayed in the same manner as for the standards described in Example 3. No quench correction is required. Only raw 1 or 2 minute counts need be used and the counts of duplicate aliquots are averaged. The amount of digoxin found in each aliquot is obtained by comparison with that day's standard curve.
Serum digoxin levels were measured in 83 nontoxic patients on the medical wards of the Los Angeles County-University of Southern California Medical Center. […]

[5] = cited from earlier work; remark: listed apart in the source
[6] = clinical; format: in vivo, human
Procedure: A person was admitted to this center 3 hours after having ingested 100 tablets of 0.1mg of digitoxin. They had vomited once. Physical examination was unrevealing. […] The P-R interval was 0.24 seconds. Serum was obtained for assay, urine collection was begun, and vigorous gastric lavage was instituted.
Apparent serum digitoxin on admission was 51.0 Ng/ml, a value close to that of another patient whose atrial fibrillation was under satisfactory control on digitoxin 0.1mg/day. […] The results from both the serum and gastric material were in the hands of ward personnel within 3 hours.
On the basis of this assay information, especially the findings from the gastric material, it was decided by those caring for the patient that they might just have passed the stage where serum levels were highest. Since they were not severe, and since only mild AV block was present, it was felt that they might do well subsequently without further intervention. They were carefully watched, and in fact recovered without further therapy. […]. Four control urine specimens and six specimens at gastric contents from persons not receiving any digitalis gave negative results.

Structure (SMILES)	Risk of Arrhythmias ([1]; 1.4 nanograms per ml of blood serum)	Risk of Arrhythmias ([1]; 2 nanograms per ml of blood serum)	Risk of Arrhythmias ([1]; 2.9 nanograms per ml of blood serum)	Risk of Arrhythmias ([1]; 4 nanograms per ml of blood serum)	Risk of Arrhythmias ([1]; 5 nanograms per ml of blood serum)	specificity of the immunoassay for digoxin over digitoxin [2] [fold]	average toxic level by immunoassay ([2]; toxic patients, serum digoxin) [ng/mL]	displaced H^3 ouabain from the enzyme (potency) [3]	average serum level (1 S.D.) [4] [ng/mL]	reported therapeutic serum levels relative to those of digoxin [5] [times]	cardiac glycosides in gastric lavage material, equivalent of digitoxin ([6]; aliquot of 4 liters of lavage material) [µg/mL]	concentration at 3 h ([6]; human, in vivo, po, 3 hours after ingestion of 100 tablets of 0.1 mg, read-out: apparent serum digitoxin on admission) [ng/mL]	concentration at 24 h ([6]; human, in vivo, po, first subsequent day, read-out: subsequent daily serum digitoxin level) [ng/mL]	concentration at 48 h ([6]; human, in vivo, po, second subsequent day, read-out: subsequent daily serum digitoxin level) [ng/mL]	concentration at 24 h ([6]; human, in vivo, po, spot urine, first of the two days after admission, read-out: apparent digitoxin concentration in urine) [ng/mL]	concentration at 48 h ([6]; human, in vivo, po, spot urine, second of the two days after admission, read-out: apparent digitoxin concentration in urine) [ng/mL]	concentration at 72 h ([6]; human, in vivo, po, third subsequent day, read-out: subsequent daily serum digitoxin level) [ng/mL]	amount removed by lavage ([6]; of the 10 mg ingested) [mg]
C[C@H]1O[C@@H](O[C@H]2[C@@H](O)C[C@H](O[C@H]3[C@@H](O)C[C@H](O[C@H]4CC[C@@]5(C)[C@H](CC[C@@H]6[C@@H]5C[C@@H](O)[C@]5(C)[C@@H](C7=CC(=O)OC7)CC[C@]65O)C4)O[C@@H]3C)O[C@@H]2C)C[C@H](O)[C@@H]1O [digoxin]	about 10%	about 25%	about 50%	about 66%	about 80%	10	3.3 ± 1.5	approximately equal potency	3.10 ± 0.76									
C[C@H]1O[C@@H](O[C@H]2[C@@H](O)C[C@H](O[C@H]3[C@@H](O)C[C@H](O[C@H]4CC[C@@]5(C)[C@H](CC[C@@H]6[C@@H]5CC[C@]5(C)[C@@H](C7=CC(=O)OC7)CC[C@]65O)C4)O[C@@H]3C)O[C@@H]2C)C[C@H](O)[C@@H]1O [digitoxin]								approximately equal potency		10 to 20	1.2	51	41	31.6	848	512	24.4	4.8
C[C@@H]1O[C@@H](O[C@H]2C[C@@H](O)[C@]3(CO)[C@H]4[C@H](O)C[C@]5(C)[C@@H](C6=CC(=O)OC6)CC[C@]5(O)[C@@H]4CC[C@]3(O)C2)[C@H](O)[C@H](O)[C@H]1O [ouabain]								approximately equal potency										
